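Where inhibition never reached the appropriate level, the endpoint shown equals the highest concentration tested. Otherwise, values were interpolated linearly from a five-concentration, 48-hour dose response in 96-well plates. GI50 = concentration required for 50% inhibition of growth.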 Calls of active or inactive are those of the source. Cut-off read from the data, not from the text of the source: active = GI50 up to about 1.1 µM and inactive = higher.
How the values were obtained:
Assay in all cases: DTP human tumour cell line panel, 48 h
786-0 = tested on: 786-0
A549 = tested on: A549
ACHN = tested on: ACHN
CAKI-1 = tested on: CAKI-1
CCRF-CEM = tested on: CCRF-CEM
COLO 205 = tested on: COLO 205
DLD-1 = tested on: DLD-1
DMS-273 = tested on: DMS-273
HCT-116 = tested on: HCT-116
HCT-15 = tested on: HCT-15
HL-60 = tested on: HL-60
HOP-18 = tested on: HOP-18
HOP-62 = tested on: HOP-62
HOP-92 = tested on: HOP-92
HT-29 = tested on: HT-29
IGROV-1 = tested on: IGROV-1
K562 = tested on: K562
KM12 = tested on: KM12
LOX IMVI = tested on: LOX IMVI
LXFL 529 = tested on: LXFL 529
M14 = tested on: M14
M19-MEL = tested on: M19-MEL
MOLT-4 = tested on: MOLT-4
Malme-3M = tested on: Malme-3M
NCI-H226 = tested on: NCI-H226
NCI-H23 = tested on: NCI-H23
NCI-H460 = tested on: NCI-H460
NCI-H522 = tested on: NCI-H522
OVCAR-4 = tested on: OVCAR-4
OVCAR-5 = tested on: OVCAR-5
OVCAR-8 = tested on: OVCAR-8
RPMI-8226 = tested on: RPMI-8226
RXF 393 = tested on: RXF 393
SF-268 = tested on: SF-268
SF-295 = tested on: SF-295
SF-539 = tested on: SF-539
SK-MEL-28 = tested on: SK-MEL-28
SK-MEL-2 = tested on: SK-MEL-2
SK-MEL-5 = tested on: SK-MEL-5
SK-OV-3 = tested on: SK-OV-3
SN12C = tested on: SN12C
SNB-75 = tested on: SNB-75
SR = tested on: SR
SW-620 = tested on: SW-620
TK-10 = tested on: TK-10
U-251 = tested on: U-251
UACC-257 = tested on: UACC-257
UACC-62 = tested on: UACC-62
UO-31 = tested on: UO-31
A498 = tested on: A498
DMS-114 = tested on: DMS-114
EKVX = tested on: EKVX
HCC 2998 = tested on: HCC 2998
KM-20L2 = tested on: KM-20L2
OVCAR-3 = tested on: OVCAR-3
SNB-19 = tested on: SNB-19
SNB-78 = tested on: SNB-78
XF498 = tested on: XF498

Cc1ccc(Cl)c2c(=O)cc(-c3ccccc3)[nH]c12
GI50 (786-0): > 100 µM (inactive) | GI50 (A549): 46.3 µM (inactive) | GI50 (ACHN): 42.3 µM (inactive) | GI50 (CAKI-1): 84.9 µM (inactive) | GI50 (CCRF-CEM): 52.7 µM (inactive) | GI50 (COLO 205): > 100 µM (inactive) | GI50 (DLD-1): > 100 µM (inactive) | GI50 (DMS-273): 35.6 µM (inactive) | GI50 (HCT-116): 58.5 µM (inactive) | GI50 (HCT-15): 46.2 µM | GI50 (HL-60): 48.5 µM (inactive) | GI50 (HOP-18): 11.5 µM (inactive) | GI50 (HOP-62): 54.3 µM (inactive) | GI50 (HOP-92): 38.8 µM (inactive) | GI50 (HT-29): 50.4 µM (inactive) | GI50 (IGROV-1): 85.3 µM (inactive) | GI50 (K562): 49.2 µM (inactive) | GI50 (KM12): 25.4 µM (inactive) | GI50 (LOX IMVI): 39.7 µM (inactive) | GI50 (LXFL 529): 41.7 µM (inactive) | GI50 (M14): 43 µM (inactive) | GI50 (M19-MEL): 68.7 µM (inactive) | GI50 (MOLT-4): 32.9 µM (inactive) | GI50 (Malme-3M): 51.6 µM (inactive) | GI50 (NCI-H226): 48.3 µM (inactive) | GI50 (NCI-H23): 59.7 µM (inactive) | GI50 (NCI-H460): 36.2 µM (inactive) | GI50 (NCI-H522): 63.7 µM (inactive) | GI50 (OVCAR-4): 55.3 µM (inactive) | GI50 (OVCAR-5): 71.6 µM (inactive) | GI50 (OVCAR-8): > 100 µM (inactive) | GI50 (RPMI-8226): 40.8 µM (inactive) | GI50 (RXF 393): 29.2 µM (inactive) | GI50 (SF-268): 58.6 µM (inactive) | GI50 (SF-295): 55.8 µM (inactive) | GI50 (SF-539): 80.2 µM (inactive) | GI50 (SK-MEL-28): > 100 µM (inactive) | GI50 (SK-MEL-2): 47.9 µM (inactive) | GI50 (SK-MEL-5): 37.8 µM (inactive) | GI50 (SK-OV-3): > 100 µM (inactive) | GI50 (SN12C): 56.4 µM (inactive) | GI50 (SNB-75): 28.8 µM (inactive) | GI50 (SR): 25.1 µM (inactive) | GI50 (SW-620): 67.5 µM (inactive) | GI50 (TK-10): 70.6 µM (inactive) | GI50 (U-251): 88.5 µM (inactive) | GI50 (UACC-257): 58.1 µM (inactive) | GI50 (UACC-62): 42.5 µM (inactive) | GI50 (UO-31): 37.9 µM (inactive)

COC(=O)C(Cl)=C1CC1
GI50 (786-0): 26.1 µM (inactive) | GI50 (A498): > 100 µM (inactive) | GI50 (A549): > 100 µM (inactive) | GI50 (ACHN): 21.5 µM (inactive) | GI50 (CAKI-1): 17.9 µM (inactive) | GI50 (CCRF-CEM): 14.3 µM (inactive) | GI50 (COLO 205): 19.9 µM (inactive) | GI50 (DLD-1): 23.6 µM (inactive) | GI50 (DMS-114): 31 µM (inactive) | GI50 (DMS-273): 31.6 µM (inactive) | GI50 (EKVX): > 10 µM (inactive) | GI50 (HCC 2998): 31.7 µM (inactive) | GI50 (HCT-15): 20.4 µM | GI50 (HL-60): 19.7 µM (inactive) | GI50 (HOP-62): > 100 µM (inactive) | GI50 (HOP-92): 13.3 µM (inactive) | GI50 (HT-29): 34.2 µM (inactive) | GI50 (IGROV-1): > 100 µM (inactive) | GI50 (K562): 22.3 µM (inactive) | GI50 (KM-20L2): > 100 µM (inactive) | GI50 (KM12): 37 µM (inactive) | GI50 (LOX IMVI): 16.7 µM (inactive) | GI50 (LXFL 529): 16 µM (inactive) | GI50 (M14): 16.2 µM (inactive) | GI50 (M19-MEL): 39.7 µM (inactive) | GI50 (MOLT-4): 17.7 µM (inactive) | GI50 (Malme-3M): 21.1 µM (inactive) | GI50 (NCI-H226): > 100 µM (inactive) | GI50 (NCI-H23): 45.2 µM (inactive) | GI50 (NCI-H460): > 100 µM (inactive) | GI50 (NCI-H522): 17.6 µM (inactive) | GI50 (OVCAR-3): 26.7 µM (inactive) | GI50 (OVCAR-4): 34.8 µM (inactive) | GI50 (OVCAR-5): > 100 µM (inactive) | GI50 (OVCAR-8): 30.3 µM (inactive) | GI50 (RPMI-8226): 21.8 µM (inactive) | GI50 (RXF 393): 19.1 µM (inactive) | GI50 (SF-268): 92.5 µM (inactive) | GI50 (SF-295): > 100 µM (inactive) | GI50 (SF-539): 27.2 µM (inactive) | GI50 (SK-MEL-28): 22.9 µM (inactive) | GI50 (SK-MEL-2): 32.1 µM (inactive) | GI50 (SK-MEL-5): 28.5 µM (inactive) | GI50 (SK-OV-3): > 100 µM (inactive) | GI50 (SN12C): 41.8 µM (inactive) | GI50 (SNB-19): > 100 µM (inactive) | GI50 (SNB-75): 38.4 µM (inactive) | GI50 (SNB-78): 49.1 µM (inactive) | GI50 (SW-620): 18.3 µM (inactive) | GI50 (TK-10): 36.7 µM (inactive) | GI50 (UACC-257): 31.6 µM (inactive) | GI50 (UACC-62): 59 µM (inactive) | GI50 (UO-31): 31.4 µM (inactive) | GI50 (XF498): 29.4 µM (inactive)

COc1cc2c(c(OC)c1OC)-c1ccc(SC)c(=O)cc1[C@@H](NCc1ccc([N+](=O)[O-])cc1)CC2
GI50 (786-0): 0.00624 µM (active) | GI50 (A498): 0.00461 µM (active) | GI50 (A549): 0.00748 µM (active) | GI50 (ACHN): 0.00959 µM (active) | GI50 (CAKI-1): 0.01 µM (active) | GI50 (CCRF-CEM): 0.00277 µM (active) | GI50 (COLO 205): 0.00396 µM (active) | GI50 (DLD-1): 0.00402 µM (active) | GI50 (DMS-114): 0.00253 µM (active) | GI50 (DMS-273): 0.00288 µM (active) | GI50 (EKVX): 0.0074 µM (active) | GI50 (HCC 2998): 0.00299 µM (active) | GI50 (HCT-116): 0.00369 µM (active) | GI50 (HCT-15): 0.00487 µM | GI50 (HL-60): 0.00202 µM (active) | GI50 (HOP-62): 0.00741 µM (active) | GI50 (HOP-92): 0.0472 µM (active) | GI50 (HT-29): 0.00331 µM (active) | GI50 (IGROV-1): 0.0371 µM (active) | GI50 (K562): 0.00318 µM (active) | GI50 (KM-20L2): 0.00158 µM (active) | GI50 (KM12): 0.0034 µM (active) | GI50 (LOX IMVI): 0.00506 µM (active) | GI50 (LXFL 529): 0.00635 µM (active) | GI50 (M14): 0.00404 µM (active) | GI50 (M19-MEL): 0.00379 µM (active) | GI50 (MOLT-4): 0.00478 µM (active) | GI50 (Malme-3M): 0.00583 µM (active) | GI50 (NCI-H226): 0.00284 µM (active) | GI50 (NCI-H23): 0.00324 µM (active) | GI50 (NCI-H460): 0.00318 µM (active) | GI50 (NCI-H522): 0.00313 µM (active) | GI50 (OVCAR-3): 0.003 µM (active) | GI50 (OVCAR-5): 0.0074 µM (active) | GI50 (OVCAR-8): 0.00578 µM (active) | GI50 (RPMI-8226): 0.00349 µM (active) | GI50 (RXF 393): 0.00241 µM (active) | GI50 (SF-268): 0.00676 µM (active) | GI50 (SF-295): 0.00364 µM (active) | GI50 (SF-539): 0.00271 µM (active) | GI50 (SK-MEL-28): 0.00493 µM (active) | GI50 (SK-MEL-2): 0.0113 µM (active) | GI50 (SK-MEL-5): 0.00421 µM (active) | GI50 (SK-OV-3): 0.00315 µM (active) | GI50 (SN12C): 0.00738 µM (active) | GI50 (SNB-19): 0.0308 µM (active) | GI50 (SNB-75): 0.00354 µM (active) | GI50 (SNB-78): 0.00904 µM (active) | GI50 (SR): 0.00148 µM (active) | GI50 (SW-620): 0.00342 µM (active) | GI50 (TK-10): 0.0423 µM (active) | GI50 (U-251): 0.00416 µM (active) | GI50 (UACC-257): 0.00516 µM (active) | GI50 (UACC-62): 0.00345 µM (active) | GI50 (UO-31): 0.406 µM (active) | GI50 (XF498): 0.00899 µM (active)
